In paper PMC12587161, “Chidamide (a Histone Deacetylase Inhibitor) Plus Abiraterone in Metastatic Castration‐Resistant Prostate Cancer (mCRPC): A Phase Ib Trial” (MedComm, 2025):
Entries after “also recorded” stand apart in the source; their conditions may differ. Where two headings read alike, the source gives them in different places.

Legend:
patients with mCRPC = assay type: in vivo
Experimental: Chidamide was tested in three dose groups (20 mg, 25 mg, 30 mg). The starting dose was 20 mg per dose, administered twice a week, with a treatment cycle lasting 4 weeks. Dosing occurred on fixed days of each week, with two doses administered on the same day each week for the duration of the 4‐week cycle. Three participants are enrolled in each dosage group. If no DLT occurred during the first treatment cycle, the dose was escalated and three patients were enrolled at the next dose level. However, if one DLT was observed, three additional patients were added at the same dose level for further assessment. If no new DLTs occur, the study continues to the next dose level. If two or more of the six patients at a given dose level developed a DLT, further dose escalation was halted, and the prior dose level was determined to be the MTD. Abiraterone was combined with the second administration of chidamide on Day 4 of the first cycle. The observation for DLT was in the period of first cycle of treatment. […]

[1] = Chidamide pharmacokinetics in patients (compartmental modeling, Phoenix Winnonlin 7.0); assay type: in vivo; conditions: male, human, plasma, mCRPC patients, after first administration; for AUC(0-t): read-out: AUC0–24 h, Mean; for clearance: read-out: CL, Mean (converted); for Vd: read-out: Vss, Mean; for half-life: read-out: t 1/2, Mean (converted)
Experimental: From patients administered with different doses of chidamide, blood samples were collected in a sodium heparin tube at the time points of 2, 4, 8, 12, and 24 h after the completion of the first administration of chidamide (Day 1) in treatment cycle 1 and cycle 2. PK parameters were estimated from chidamide concentrations measured using […] samples taken at specified time points postdosing, and were analyzed by Phoenix Winnonlin 7.0.

C4-2 cells = assay: Cell viability by CCK-8; assay type: cell-based; conditions: DHT 10 nM, chidamide 0.5 µM and/or enzalutamide 20 µM, 96 h
Experimental: (§1) FIGURE 5 Chidamide inhibited AR pathway and CRPC progression and in vitro. (A) Effect of chidamide and enzalutamide on cell viability. C4‐2 cells were treated with DHT (10 nM), chidamide (0.5 µM), and/or enzalutamide (20 µM) for 96 h. Cell viability was measured by CCK‐8. […] DHT (10 nM) served as control.
C4‐2 cell line was provided by Prof. Yonghong Li (Sun Yat‐sen University Cancer Center) and validated by short tandem repeat (STR). C4‐2 cells were grown in RPMI 1640 containing 10% FBS.

[2] = test system: AR downstream genes (PSA, TMPRSS2, SLC45A3) in C4-2 cells; assay: RT-PCR of AR downstream genes; assay type: cell-based; conditions: chidamide 0.5 µM
Experimental: as §1
Total cellular RNA was isolated using EZ‐press RNA Purification Kit (EZBioscience, USA) according to the manufacturer's protocol. For first‐strand cDNA synthesis, 5 µg of total RNA was reverse‐transcribed using the PrimeScript RT Master Mix (Perfect Real Time, TaKaRa Bio, Kusatsu, Japan) followed by quantitative PCR (qPCR) with 2 × Taq Master Mix (Vazyme Biotech Co., Ltd, China) according to the manufacturer's instructions. Real‐time PCR analyses were conducted using the Biorad CFX96 system and the appropriate primers to estimate the mRNA expression. The primer sequences were as follows: for PSA, forward 5′‐[…]‐3′ and reverse 5′‐[…]‐3′; for TMPRSS2, forward 5′‐[…]‐3′ and reverse 5′‐[…]‐3′; for SLC45A3, forward 5′‐[…]‐3′ and reverse 5′‐[…]‐3′; for GAPDH, forward 5′‐[…]‐3′ and reverse 5′‐[…]‐3′.

[3] = test system: chemotherapy-naïve mCRPC patients; parameters: method as in PMID 19608618; conditions: cited from earlier work

SMILES: Nc1cc(F)ccc1NC(=O)c1ccc(CNC(=O)/C=C/c2cccnc2)cc1 [chidamide, Chidamide]
- Chidamide-related SAEs (patients with mCRPC; all 18 patients): No chidamide‐related SAEs were observed
- Dose-limited toxicity (DLT) (patients with mCRPC; dose escalation 20, 25, 30 mg chidamide, first cycle): none of the patients experienced a DLT
- Cmax ([1]; 20 mg (N = 4)): 79.2 ng/mL
- AUC(0-t) ([1]; 20 mg (N = 4)): 1330 ng·h/mL
- clearance ([1]; 20 mg (N = 4)): 170 mL/min
- Vd ([1]; 20 mg (N = 4)): 207 L
- half-life ([1]; 20 mg (N = 4)): 13.9 h
- Cmax ([1]; 25 mg (N = 11)): 91.2 ng/mL
- AUC(0-t) ([1]; 25 mg (N = 11)): 1160 ng·h/mL
- clearance ([1]; 25 mg (N = 11)): 260 mL/min
- Vd ([1]; 25 mg (N = 11)): 326 L
- half-life ([1]; 25 mg (N = 11)): 13.6 h
- Cmax ([1]; 30 mg (N = 3)): 296 ng/mL
- AUC(0-t) ([1]; 30 mg (N = 3)): 2860 ng·h/mL
- clearance ([1]; 30 mg (N = 3)): 188 mL/min
- Vd ([1]; 30 mg (N = 3)): 132 L
- half-life ([1]; 30 mg (N = 3)): 8.06 h
- Cell viability (C4-2 cells): effectively inhibits the cell viability
- Relative mRNA expression of PSA [2]: significantly downregulated; also recorded: decreased
- Relative mRNA expression of SLC45A3 [2]: significantly downregulated; also recorded: decreased
- Relative mRNA expression of TMPRSS2 [2]: significantly downregulated; also recorded: decreased

SMILES: C/C=C1\NC(=O)[C@H]2CSSCC/C=C/[C@H](CC(=O)N[C@H](C(C)C)C(=O)N2)OC(=O)[C@H](C(C)C)NC1=O [romidepsin]
- Time to progression (TTP) [3]: 1.8 months
